Drawing on ChEMBL document CHEMBL1144434, “Structure-activity relationships within a series of caspase inhibitors. Part 2: Heterocyclic warheads” (Bioorg Med Chem Lett, 2005), this text covers k3/ki and IC50 for 14 compounds.

The target of one experiment is T1, Caspase-1 (Mus musculus) (UniProt P29452).
T1 sequence (whole entry): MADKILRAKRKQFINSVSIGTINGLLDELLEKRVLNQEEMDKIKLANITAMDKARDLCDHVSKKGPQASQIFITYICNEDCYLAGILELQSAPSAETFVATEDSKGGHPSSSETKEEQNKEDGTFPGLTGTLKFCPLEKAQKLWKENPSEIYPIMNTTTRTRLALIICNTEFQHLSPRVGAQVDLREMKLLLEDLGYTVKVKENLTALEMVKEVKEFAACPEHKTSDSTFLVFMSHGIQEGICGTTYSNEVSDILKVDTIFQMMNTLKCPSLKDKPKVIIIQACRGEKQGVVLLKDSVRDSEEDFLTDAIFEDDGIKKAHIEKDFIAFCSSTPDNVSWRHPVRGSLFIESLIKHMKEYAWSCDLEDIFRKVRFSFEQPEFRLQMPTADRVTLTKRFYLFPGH
Description: Binding affinity against mouse Caspase-1.

The target of experiment [1] is T2, Caspase-6 (Homo sapiens) (UniProt P55212).
T2 sequence (whole entry): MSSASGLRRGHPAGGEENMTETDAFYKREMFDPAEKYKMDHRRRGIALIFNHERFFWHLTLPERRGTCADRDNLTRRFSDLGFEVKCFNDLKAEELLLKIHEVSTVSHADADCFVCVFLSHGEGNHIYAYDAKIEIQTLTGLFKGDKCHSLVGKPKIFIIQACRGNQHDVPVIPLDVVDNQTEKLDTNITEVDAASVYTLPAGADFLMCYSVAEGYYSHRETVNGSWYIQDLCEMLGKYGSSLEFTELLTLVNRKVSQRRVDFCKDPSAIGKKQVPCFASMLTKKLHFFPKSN
Nature of the experiment: Reversible inhibition against Caspase-6.

Another experiment has as its system Jurkat. Nature of the experiment: Inhibitory concentration for cellular activity in jurkat assay. Type of experiment: functional, cell-based. As to conditions: Homo sapiens.
For the next experiment, the target named is Caspase-8 (Homo sapiens) (UniProt Q14790). Nature of the experiment: Binding affinity against Caspase-8.
Caspase-8 (Homo sapiens), sequence (Q14790 217-374 limits assumed): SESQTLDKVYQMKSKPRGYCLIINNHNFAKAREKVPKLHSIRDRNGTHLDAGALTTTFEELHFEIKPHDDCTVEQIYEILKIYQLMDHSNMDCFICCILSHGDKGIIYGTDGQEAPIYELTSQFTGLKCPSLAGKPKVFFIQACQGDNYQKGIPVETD
Caspase-8 (Homo sapiens), sequence (Q14790 385-479 limits assumed): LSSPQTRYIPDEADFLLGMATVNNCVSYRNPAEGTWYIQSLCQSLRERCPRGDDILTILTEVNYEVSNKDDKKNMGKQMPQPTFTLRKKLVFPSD
Another experiment concerns the target T3, Caspase-3 (Homo sapiens) (UniProt P42574).
T3 sequence (whole entry): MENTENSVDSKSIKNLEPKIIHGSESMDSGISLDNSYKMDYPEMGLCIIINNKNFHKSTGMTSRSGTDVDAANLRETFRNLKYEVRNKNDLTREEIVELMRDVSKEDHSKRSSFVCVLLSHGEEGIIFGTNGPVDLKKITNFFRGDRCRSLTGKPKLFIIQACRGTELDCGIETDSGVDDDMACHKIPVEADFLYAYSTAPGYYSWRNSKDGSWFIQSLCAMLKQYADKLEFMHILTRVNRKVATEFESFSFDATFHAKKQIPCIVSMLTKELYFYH
Description: Binding affinity against Caspase-3.

In experiment [2] the target is T2, Caspase-6 (Homo sapiens). Nature of the experiment: Binding affinity against Caspase-6.

Consider `CCOC(=O)c1c(C)noc1OCC(=O)[C@H](CC(=O)O)NC(=O)[C@@H](NC(=O)COc1cccc2ccccc12)C(C)C`, for which the k3/ki at Caspase-1 (Mus musculus) was 1440 1/m/s; at Caspase-6 (Homo sapiens) [1] it was 0 1/m/s; on Caspase-8 (Homo sapiens), 1140 1/m/s; on Caspase-3 (Homo sapiens), 5670 1/m/s. This compound displayed an IC50 with Jurkat above 200 µM.
Take `CC(C)[C@H](NC(=O)COc1cccc2ccccc12)C(=O)N[C@@H](CC(=O)O)C(=O)CSc1nc(-c2ccccc2)no1`: the k3/ki on Caspase-1 (Mus musculus) is 1190 1/m/s; on Caspase-6 (Homo sapiens) [2], 975 1/m/s; at Caspase-8 (Homo sapiens), 3060 1/m/s; at Caspase-3 (Homo sapiens) it was 38100 1/m/s. This compound also displayed an IC50 with Jurkat of 102 µM.
On the same counts, the results for `Cc1cc(OCC(=O)[C@H](CC(=O)O)NC(=O)[C@@H](NC(=O)COc2cccc3ccccc23)C(C)C)nc(C)n1` are 1330 1/m/s, 903 1/m/s, 367 1/m/s, 7480 1/m/s and above 200 µM.
The like results for `CC(C)[C@H](NC(=O)COc1cccc2ccccc12)C(=O)N[C@@H](CC(=O)O)C(=O)COc1cc(C(F)(F)F)nn1-c1ccccc1` were, in that order, 7570 1/m/s, 23900 1/m/s, 2270 1/m/s, 71100 1/m/s and 28 µM.
`CC(C)[C@H](NC(=O)COc1cccc2ccccc12)C(=O)N[C@@H](CC(=O)O)C(=O)COc1cccc2cccnc12`: the k3/ki on Caspase-1 (Mus musculus) was 1260 1/m/s; at Caspase-6 (Homo sapiens) [2], 140 1/m/s; at Caspase-8 (Homo sapiens) it was 39 1/m/s; on Caspase-3 (Homo sapiens), 4360 1/m/s. For the same compound, the IC50 with Jurkat was above 200 µM.
On the same counts, the results for `Cc1nnc(SCC(=O)[C@H](CC(=O)O)NC(=O)[C@@H](NC(=O)COc2cccc3ccccc23)C(C)C)s1` are 5480 1/m/s, 83 1/m/s, 0 1/m/s, 5240 1/m/s and 190 µM.
The like results for `CC(C)[C@H](NC(=O)COc1cccc2ccccc12)C(=O)N[C@@H](CC(=O)O)C(=O)COc1nncc(Cl)c1Cl` were, in that order, 152 1/m/s, 8 1/m/s, 0 1/m/s, 1760 1/m/s and above 200 µM.
The like results for `CC(C)[C@H](NC(=O)COc1cccc2ccccc12)C(=O)N[C@@H](CC(=O)O)C(=O)COn1nnc2ccccc2c1=O` were, in that order, 45400 1/m/s, 44000 1/m/s, 18200 1/m/s, 169000 1/m/s and 137 µM.
As for `CC(C)[C@H](NC(=O)COc1cccc2ccccc12)C(=O)N[C@@H](CC(=O)O)C(=O)COc1[nH]cnc2nncc1-2`, the k3/ki is 273 1/m/s on Caspase-1 (Mus musculus), 143 1/m/s at Caspase-6 (Homo sapiens) [2], 107 1/m/s on Caspase-8 (Homo sapiens) and 906 1/m/s on Caspase-3 (Homo sapiens). For the same compound, the IC50 in the experiment with Jurkat stood at 161 µM.
The like results for `CC(C)[C@H](NC(=O)COc1cccc2ccccc12)C(=O)N[C@@H](CC(=O)O)C(=O)CSc1nc2ccccc2s1` were, in that order, 202 1/m/s, 0 1/m/s, 0 1/m/s, 3570 1/m/s and above 200 µM.
In the case of `CC(C)[C@H](NC(=O)COc1cccc2ccccc12)C(=O)N[C@@H](CC(=O)O)C(=O)COc1cncc2ccccc12`, the k3/ki at Caspase-1 (Mus musculus), on Caspase-6 (Homo sapiens) [2], on Caspase-8 (Homo sapiens) and at Caspase-3 (Homo sapiens) was 0 1/m/s each time. Also, 166 µM corresponded to half-maximal inhibition in the experiment with Jurkat (IC50).
In the case of `CC(C)[C@H](NC(=O)COc1cccc2ccccc12)C(=O)N[C@@H](CC(=O)O)C(=O)CSc1ncc[nH]1`, the k3/ki was 173 1/m/s at Caspase-1 (Mus musculus), 22 1/m/s on Caspase-6 (Homo sapiens) [2], 0 1/m/s at Caspase-8 (Homo sapiens) and 850 1/m/s on Caspase-3 (Homo sapiens). In the experiment on Jurkat, this compound registered an IC50 above 200 µM.
The like results for `CC(C)[C@H](NC(=O)COc1cccc2ccccc12)C(=O)N[C@@H](CC(=O)O)C(=O)COc1nc2ccccc2[nH]1` were, in that order, 41 1/m/s, 0 1/m/s, 2 1/m/s, 958 1/m/s and above 200 µM.
On the same counts, the results for `CC(C)[C@H](NC(=O)COc1cccc2ccccc12)C(=O)N[C@@H](CC(=O)O)C(=O)CSC1=NCCS1` are 186 1/m/s, 228 1/m/s, 231 1/m/s, 2300 1/m/s and above 200 µM.

As usually defined, the IC50 is the concentration that gives 50% inhibition.
